Test results taken from patent US9725465B2, “Biaryl acetamide compounds and methods of use thereof” (Ambit Biosciences Corporation, priority 2013, dated 2017).

Columns and labels:
KIT kinase = KIT kinase (Homo sapiens (Human), UniProt P10721); test: Competition binding assay (Kd), KIT; settings: competition binding assay
How it was run: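 Kd derived from eleven-point threefold serial dilutions of compound competing with bead-bound ligand for kinase; bound kinase eluted and measured by quantitative PCR. Kinase supplied either as a T7 phage fusion or expressed in HEK-293 cells with a DNA tag; DMSO served as control.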

FLT3 kinase = FLT3 kinase (Homo sapiens (Human), UniProt P36888); test: Competition binding assay (Kd), FLT3; settings: competition binding assay
FLT3-ITD = FLT3-ITD (Homo sapiens (Human), UniProt P36888, INS600HVDFREYEYD); test: pFLT3 MSD assay, Ba/F3 FLT3-ITD; assay type: cell-based; settings: Ba/F3 FLT3-ITD cells, 2 hours, read-out: BaF3-FLT3-ITD pFlt3 IC50
Chain of FLT3-ITD (P36888 other isoform, or with tags, fused parts or gaps limits assumed, stated change not applied): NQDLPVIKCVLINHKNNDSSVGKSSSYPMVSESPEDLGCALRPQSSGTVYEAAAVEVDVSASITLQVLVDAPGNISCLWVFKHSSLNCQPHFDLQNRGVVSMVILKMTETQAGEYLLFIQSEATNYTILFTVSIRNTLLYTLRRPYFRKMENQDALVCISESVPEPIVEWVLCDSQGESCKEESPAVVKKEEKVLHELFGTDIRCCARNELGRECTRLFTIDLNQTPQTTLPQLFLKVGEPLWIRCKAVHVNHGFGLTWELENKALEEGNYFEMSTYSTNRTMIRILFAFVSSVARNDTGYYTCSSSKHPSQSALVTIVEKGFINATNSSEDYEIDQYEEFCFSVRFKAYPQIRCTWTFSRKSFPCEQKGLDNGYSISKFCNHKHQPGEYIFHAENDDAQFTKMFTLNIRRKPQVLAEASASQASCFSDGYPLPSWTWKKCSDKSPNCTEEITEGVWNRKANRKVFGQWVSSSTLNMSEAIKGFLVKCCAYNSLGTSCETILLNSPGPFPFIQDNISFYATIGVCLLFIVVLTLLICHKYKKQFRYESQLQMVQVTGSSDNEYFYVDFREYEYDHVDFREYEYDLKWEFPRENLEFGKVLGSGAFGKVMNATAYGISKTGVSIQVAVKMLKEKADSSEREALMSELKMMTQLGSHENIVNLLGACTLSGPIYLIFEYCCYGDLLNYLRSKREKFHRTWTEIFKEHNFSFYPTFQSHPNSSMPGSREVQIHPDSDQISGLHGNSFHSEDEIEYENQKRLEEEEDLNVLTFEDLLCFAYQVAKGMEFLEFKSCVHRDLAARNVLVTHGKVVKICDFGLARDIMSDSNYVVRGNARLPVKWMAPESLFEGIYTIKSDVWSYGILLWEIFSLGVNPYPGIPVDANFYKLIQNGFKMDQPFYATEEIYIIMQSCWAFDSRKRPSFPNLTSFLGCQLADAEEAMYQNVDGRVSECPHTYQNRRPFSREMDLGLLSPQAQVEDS
Method: In certain other embodiments, the compounds disclosed herein are tested in a FLT3 phosphorylation assay to determine their cellular potency against one or both of FLT3-ITD and FLT3 tyrosine kinase domain mutants. In certain embodiments, the FLT3 phosphorylation assay assesses the potency of compounds as FLT3 inhibitors by measuring the reduction in formation of phosphorylated FLT3 in the cells.
Gene constructs containing the human FLT3 sequences FLT3-ITD, FLT3-ITD-F691L, FLT3-ITD-D835V and FLT3-D835V were synthesized by reverse translation of the human protein sequences, with codons optimized for mammalian expression. Sequence of the internal tandem duplication (ITD) was based on the MV4-11 ITD sequence. […] Viruses were transduced into the IL-3-dependent, murine macrophage cell line, Ba/F3, and selected for puromycin resistance and IL-3 independence. All cell lines were cloned by limiting dilution and clones were used for all subsequent cell assays.
Briefly, cell lines were serum starved overnight in media containing 0.5% FBS. Cells were plated at 200,000 cells/well in 96-well round bottom plates in low serum, and 3-fold serial dilutions of test compounds were added for 2 hours at 37° C. […] After an overnight incubation at 4° C. shaking at 450 rpm, plates were washed with MSD wash buffer, and captured FLT3 was detected with biotinylated-anti-phosphotyrosine antibody 4G10 (Millipore) and SulfoTAG-streptavidin (MSD) for 1 hour at room temperature, and read on an MSD SECTOR Imager 6000. Percent remaining phospho-FLT3 in compound-treated cells was normalized to DMSO-treated cells, and IC50s were determined using Igor Pro software. All compounds are assayed in duplicate cell and MSD plates.

Chain of KIT kinase (P10721 26-976): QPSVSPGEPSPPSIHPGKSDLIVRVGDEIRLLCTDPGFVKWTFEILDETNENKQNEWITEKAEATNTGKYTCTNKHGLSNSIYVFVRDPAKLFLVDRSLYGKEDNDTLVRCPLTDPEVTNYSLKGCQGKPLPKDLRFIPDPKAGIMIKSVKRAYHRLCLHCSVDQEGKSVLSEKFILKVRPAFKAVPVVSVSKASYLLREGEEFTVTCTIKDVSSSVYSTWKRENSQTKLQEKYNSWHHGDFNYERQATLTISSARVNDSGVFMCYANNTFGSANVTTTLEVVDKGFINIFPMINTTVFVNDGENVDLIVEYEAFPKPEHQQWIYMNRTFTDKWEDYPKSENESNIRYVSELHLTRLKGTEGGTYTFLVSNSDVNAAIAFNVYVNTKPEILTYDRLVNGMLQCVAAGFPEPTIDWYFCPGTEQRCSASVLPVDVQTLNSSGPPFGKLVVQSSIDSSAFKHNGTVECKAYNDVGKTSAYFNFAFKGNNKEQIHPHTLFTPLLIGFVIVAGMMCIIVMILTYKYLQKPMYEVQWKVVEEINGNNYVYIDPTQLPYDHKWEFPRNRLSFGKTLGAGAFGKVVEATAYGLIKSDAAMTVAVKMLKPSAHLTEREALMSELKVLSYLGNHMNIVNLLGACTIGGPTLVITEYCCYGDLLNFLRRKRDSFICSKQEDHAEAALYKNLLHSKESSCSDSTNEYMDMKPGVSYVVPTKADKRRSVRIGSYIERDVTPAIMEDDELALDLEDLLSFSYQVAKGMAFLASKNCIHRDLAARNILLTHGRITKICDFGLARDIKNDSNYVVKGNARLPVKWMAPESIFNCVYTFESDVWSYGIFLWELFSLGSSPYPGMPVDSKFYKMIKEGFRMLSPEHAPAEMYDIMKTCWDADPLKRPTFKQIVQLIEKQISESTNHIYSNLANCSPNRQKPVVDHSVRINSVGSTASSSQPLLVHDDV
Chain of FLT3 kinase (P36888 27-993): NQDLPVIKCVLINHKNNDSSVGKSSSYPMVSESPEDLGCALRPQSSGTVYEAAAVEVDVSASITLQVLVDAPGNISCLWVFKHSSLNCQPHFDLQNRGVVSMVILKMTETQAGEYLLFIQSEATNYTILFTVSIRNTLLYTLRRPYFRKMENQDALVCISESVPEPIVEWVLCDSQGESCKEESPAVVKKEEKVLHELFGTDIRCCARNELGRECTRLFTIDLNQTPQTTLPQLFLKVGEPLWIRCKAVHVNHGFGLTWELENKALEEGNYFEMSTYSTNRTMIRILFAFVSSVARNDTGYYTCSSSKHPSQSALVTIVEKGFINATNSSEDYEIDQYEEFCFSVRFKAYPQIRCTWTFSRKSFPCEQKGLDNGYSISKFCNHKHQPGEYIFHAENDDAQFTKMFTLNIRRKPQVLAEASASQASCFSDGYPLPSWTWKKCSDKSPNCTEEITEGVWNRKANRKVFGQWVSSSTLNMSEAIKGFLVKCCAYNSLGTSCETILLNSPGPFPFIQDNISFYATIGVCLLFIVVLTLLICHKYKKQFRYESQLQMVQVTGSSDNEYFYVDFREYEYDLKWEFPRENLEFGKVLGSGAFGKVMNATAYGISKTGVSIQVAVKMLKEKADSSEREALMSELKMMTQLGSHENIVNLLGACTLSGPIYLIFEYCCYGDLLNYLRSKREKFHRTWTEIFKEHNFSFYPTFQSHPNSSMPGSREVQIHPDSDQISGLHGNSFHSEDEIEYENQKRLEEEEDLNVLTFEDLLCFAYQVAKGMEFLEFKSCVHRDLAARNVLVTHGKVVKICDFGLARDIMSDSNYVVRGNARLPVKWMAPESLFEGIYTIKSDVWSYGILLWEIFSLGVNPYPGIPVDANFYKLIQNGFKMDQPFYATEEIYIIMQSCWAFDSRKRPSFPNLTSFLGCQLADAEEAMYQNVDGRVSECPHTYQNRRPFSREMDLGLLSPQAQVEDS

SMILES: COc1cc2nc(-c3ccc(CC(=O)Nc4cc(C5(C(F)(F)F)CC5)on4)c(F)c3)cnc2cc1OCCOC(C)=O [Example 130, 2-[2-[3-fluoro-4-[2-oxo-2-[[5-[1-(trifluoromethyl)cyclo-propyl]isoxazol-3-yl]amino]ethyl]phenyl]-7-methoxy-quinoxalin-6-yl]oxyethyl acetate]
- Kd (KIT kinase): < 5 nM
- Kd (FLT3 kinase): < 5 nM
- IC50 (FLT3-ITD): < 10 nM

SMILES: COc1cc2nc(-c3ccc(CC(=O)Nc4cc(C5(C(F)(F)F)CC5)on4)c(F)c3)cnc2cc1OCCO [Example 131, 2-[2-fluoro-4-[6-(2-hydroxyethoxy)-7-methoxy-quinoxalin-2-yl]phenyl]-N-[5-[1-(trifluoromethyl)cyclo-propyl]isoxazol-3-yl]acetamide]
- Kd (KIT kinase): < 5 nM
- Kd (FLT3 kinase): < 5 nM
- IC50 (FLT3-ITD): < 10 nM

SMILES: CCOC(=O)c1nc2cc(OC)c(OC)cc2nc1-c1ccc(CC(=O)Nc2cc(C3(C(F)(F)F)CC3)on2)c(F)c1 [Example 132, ethyl 3-[3-fluoro-4-[2-oxo-2-[[5-[1-(trifluoro-methyl)cyclopropyl]isoxazol-3-yl]amino]ethyl]phenyl]-6,7-dimethoxy-quinoxaline-2-carboxylate]
- Kd (KIT kinase): > 50 nM
- Kd (FLT3 kinase): > 50 nM
- IC50 (FLT3-ITD): > 50 nM

SMILES: COc1cc2nc(C(=O)O)c(-c3ccc(CC(=O)Nc4cc(C5(C(F)(F)F)CC5)on4)c(F)c3)nc2cc1OC [Example 133, 3-[3-fluoro-4-[2-oxo-2-[[5-[1-(trifluoro-methyl)cyclopropyl]isoxazol-3-yl]amino]ethyl]phenyl]-6,7-dimethoxy-quinoxaline-2-carboxylic acid]
- Kd (KIT kinase): > 50 nM
- Kd (FLT3 kinase): 20 to 50 nM
- IC50 (FLT3-ITD): > 50 nM

SMILES: COc1cc2nc(-c3ccc(CC(=O)Nc4cc(C5(C(F)(F)F)CC5)on4)c(F)c3)cnc2cc1OCCN1CCCC1 [Example 134, 2-[2-fluoro-4-[7-methoxy-6-(2-pyrrolidin-1-ylethoxy)quinoxalin-2-yl]phenyl]-N-[5-[1-(trifluoromethyl)cyclo-propyl]isoxazol-3-yl]acetamide]
- Kd (KIT kinase): < 5 nM
- Kd (FLT3 kinase): < 5 nM
- IC50 (FLT3-ITD): < 10 nM

SMILES: COc1cc2nc(C(N)=O)c(-c3ccc(CC(=O)Nc4cc(C5(C(F)(F)F)CC5)on4)c(F)c3)nc2cc1OC [Example 135, 3-[3-fluoro-4-[2-oxo-2-[[5-[1-(trifluoro-methyl)cyclopropyl]isoxazol-3-yl]amino]ethyl]phenyl]-6,7-dimethoxy-quinoxaline-2-carboxamide]
- Kd (KIT kinase): > 50 nM
- Kd (FLT3 kinase): > 50 nM
- IC50 (FLT3-ITD): > 50 nM

SMILES: COc1cc2nc(-c3ccc(CC(=O)Nc4cc(C5(C(F)(F)F)CC5)on4)c(F)c3)cnc2cc1OCCOC(=O)N(C)C [Example 136, 2-[2-[3-fluoro-4-[2-oxo-2-[[5-[1-(trifluoro-methyl)cyclopropyl]isoxazol-3-yl]amino]ethyl]phenyl]-7-methoxy-quinoxalin-6-yl]oxyethyl N,N-dimethylcarbamate]
- Kd (KIT kinase): 5 to 20 nM
- Kd (FLT3 kinase): < 5 nM
- IC50 (FLT3-ITD): < 10 nM

SMILES: COc1cc2nc(CO)c(-c3ccc(CC(=O)Nc4cc(C5(C(F)(F)F)CC5)on4)c(F)c3)nc2cc1OC [Example 137, 2-[2-fluoro-4-[3-(hydroxymethyl)-6,7-dimethoxy-quinoxalin-2-yl]phenyl]-N-[5-[1-(trifluoro-methyl)cyclopropyl]isoxazol-3-yl]acetamide]
- Kd (KIT kinase): < 5 nM
- Kd (FLT3 kinase): < 5 nM
- IC50 (FLT3-ITD): < 10 nM

SMILES: COc1cc2ncc(-c3ccc(CC(=O)Nc4cc(C(C)(C)C(F)(F)F)on4)c(F)c3)c(Cl)c2cc1OC [Example 138, 2-[4-(4-chloro-6,7-dimethoxy-3-quinolyl)-2-fluoro-phenyl]-N-[5-(2,2,2-trifluoro-1,1-dimethyl-ethyl)isoxazol-3-yl]acetamide]
- Kd (KIT kinase): < 5 nM
- Kd (FLT3 kinase): < 5 nM
- IC50 (FLT3-ITD): < 10 nM

SMILES: COc1cc2ncc(-c3ccc(CC(=O)Nc4cc(C(C)(C)C)nn4C)c(F)c3)nc2cc1OC [Example 139, N-(5-tert-butyl-2-methyl-pyrazol-3-yl)-2-[4-(6,7-dimethoxyquinoxalin-2-yl)-2-fluoro-phenyl]acetamide]
- Kd (KIT kinase): < 5 nM
- Kd (FLT3 kinase): < 5 nM
- IC50 (FLT3-ITD): < 10 nM

SMILES: COc1cc2ncc(-c3ccc(CC(=O)Nc4cc(C(C)(C)C)nn4-c4ccccc4)c(F)c3)nc2cc1OC [Example 140, N-(5-tert-butyl-2-phenyl-pyrazol-3-yl)-2-[4-(6,7-dimethoxyquinoxalin-2-yl)-2-fluoro-phenyl]acetamide]
- Kd (KIT kinase): 5 to 20 nM
- Kd (FLT3 kinase): < 5 nM
- IC50 (FLT3-ITD): < 10 nM

SMILES: COc1cc2ncc(-c3ccc(CC(=O)Nc4cc(C(C)(C)C(F)(F)F)on4)c(F)c3)c(N=[N+]=[N-])c2cc1OC [Example 141, 2-[4-(4-azido-6,7-dimethoxy-3-quinolyl)-2-fluoro-phenyl]-N-[5-(2,2,2-trifluoro-1,1-dimethyl-ethyl)isoxazol-3-yl]acetamide]
- Kd (KIT kinase): 5 to 20 nM
- Kd (FLT3 kinase): < 5 nM
- IC50 (FLT3-ITD): < 10 nM

SMILES: CCN1CC(Oc2cc3ncc(-c4ccc(CC(=O)Nc5cc(C6(C(F)(F)F)CC6)on5)c(F)c4)nc3cc2OC)C1 [Example 142, 2-[4-[6-(1-ethylazetidin-3-yl)oxy-7-methoxy-quinoxalin-2-yl]-2-fluoro-phenyl]-N-[5-[1-(trifluoro-methyl)cyclopropyl]isoxazol-3-yl]acetamide]
- Kd (KIT kinase): < 5 nM
- Kd (FLT3 kinase): < 5 nM
- IC50 (FLT3-ITD): < 10 nM

SMILES: COc1cc2ncc(-c3ccc(CC(=O)Nc4cc(C(C)(C)C(F)(F)F)on4)c(F)c3)c(N)c2cc1OC [Example 143, 2-[4-(4-amino-6,7-dimethoxy-3-quinolyl)-2-fluoro-phenyl]-N-[5-(2,2,2-trifluoro-1,1-dimethyl-ethyl)isoxazol-3-yl]acetamide]
- Kd (KIT kinase): 5 to 20 nM
- Kd (FLT3 kinase): < 5 nM
- IC50 (FLT3-ITD): 10 to 20 nM

SMILES: COc1cc2nc(-c3ccc(CC(=O)Nc4cc(C5(C(F)(F)F)CC5)on4)c(F)c3)cnc2cc1OC1COC1 [Example 144, 2-[2-fluoro-4-[7-methoxy-6-(oxetan-3-yloxy)quinoxalin-2-yl]phenyl]-N-[5-[1-(trifluoro-methyl)cyclopropyl]isoxazol-3-yl]acetamide]
- Kd (KIT kinase): < 5 nM
- Kd (FLT3 kinase): < 5 nM
- IC50 (FLT3-ITD): < 10 nM

SMILES: COc1cc2ncc(-c3ccc(CC(=O)Nc4cc(C(C)(C)C(F)(F)F)on4)c(F)c3)c(OC)c2cc1OC [Example 145, 2-[2-fluoro-4-(4,6,7-trimethoxy-3-quinolyl)phenyl]-N-[5-(2,2,2-trifluoro-1,1-dimethyl-ethyl)isoxazol-3-yl]acetamide]
- Kd (KIT kinase): > 50 nM
- Kd (FLT3 kinase): 5 to 20 nM
- IC50 (FLT3-ITD): > 50 nM

SMILES: COc1cc2nc(Cl)c(-c3ccc(CC(=O)Nc4cc(C5(C(F)(F)F)CC5)on4)c(F)c3)nc2cc1OC [Example 146, 2-[4-(3-chloro-6,7-dimethoxy-quinoxalin-2-yl)-2-fluoro-phenyl]-N-[5-[1-(trifluoromethyl)cyclo-propyl]isoxazol-3-yl]acetamide]
- Kd (KIT kinase): < 5 nM
- Kd (FLT3 kinase): < 5 nM
- IC50 (FLT3-ITD): < 10 nM

SMILES: COc1cc2nc(-c3ccc(CC(=O)Nc4cc(C(C)(C)C(F)(F)F)on4)c(F)c3)cnc2cc1OC1COC1 [Example 147, 2-[2-fluoro-4-[7-methoxy-6-(oxetan-3-yloxy)quinoxalin-2-yl]phenyl]-N-[5-(2,2,2-trifluoro-1,1-dimethyl-ethyl)isoxazol-3-yl]acetamide]
- Kd (KIT kinase): < 5 nM
- Kd (FLT3 kinase): < 5 nM
- IC50 (FLT3-ITD): < 10 nM

SMILES: COc1cc2nc(-c3ccc(CC(=O)Nc4cc(C(C)(C)C(F)(F)F)on4)c(F)c3)cnc2cc1OC1CNC1 [Example 148, 2-[4-[6-(azetidin-3-yloxy)-7-methoxy-quinoxalin-2-yl]-2-fluoro-phenyl]-N-[5-(2,2,2-trifluoro-1,1-dimethyl-ethyl)isoxazol-3-yl]acetamide]
- Kd (KIT kinase): 5 to 20 nM
- Kd (FLT3 kinase): < 5 nM
- IC50 (FLT3-ITD): < 10 nM

SMILES: CCN1CC(Oc2cc3ncc(-c4ccc(CC(=O)Nc5cc(C(C)(C)C(F)(F)F)on5)c(F)c4)nc3cc2OC)C1 [Example 149, 2-[4-[6-(1-ethylazetidin-3-yl)oxy-7-methoxy-quinoxalin-2-yl]-2-fluoro-phenyl]-N-[5-(2,2,2-trifluoro-1,1-dimethyl-ethyl)isoxazol-3-yl]acetamide]
- Kd (KIT kinase): < 5 nM
- Kd (FLT3 kinase): < 5 nM
- IC50 (FLT3-ITD): < 10 nM

SMILES: COc1cc2nc(-c3ccc(CC(=O)Nc4cc(C(C)(C)C(F)(F)F)on4)c(F)c3)cnc2cc1OC1CN(C)C1 [Example 150, 2-[2-fluoro-4-[7-methoxy-6-(1-methylazetidin-3-yl)oxy-quinoxalin-2-yl]phenyl]-N-[5-(2,2,2-trifluoro-1,1-dimethyl-ethyl)isoxazol-3-yl]acetamide]
- Kd (KIT kinase): < 5 nM
- Kd (FLT3 kinase): < 5 nM
- IC50 (FLT3-ITD): < 10 nM

SMILES: CC(C)(c1cc(NC(=O)Cc2ccc(-c3cnc4c(N)cccc4c3)cc2F)no1)C(F)(F)F [Example 151, 2-[4-(8-amino-3-quinolyl)-2-fluoro-phenyl]-N-[5-(2,2,2-trifluoro-1,1-dimethyl-ethyl)isoxazol-3-yl]acetamide]
- Kd (KIT kinase): < 5 nM
- Kd (FLT3 kinase): < 5 nM
- IC50 (FLT3-ITD): < 10 nM

SMILES: COc1cc2nc(O)c(-c3ccc(CC(=O)Nc4cc(C5(C(F)(F)F)CC5)on4)c(F)c3)nc2cc1OC [Example 152, 2-[4-(6,7-dimethoxy-3-hydroxy-quinoxalin-2-yl)-2-fluoro-phenyl]-N-[5-[1-(trifluoromethyl)cyclo-propyl]isoxazol-3-yl]acetamide]
- Kd (KIT kinase): < 5 nM
- Kd (FLT3 kinase): < 5 nM
- IC50 (FLT3-ITD): < 10 nM

SMILES: COc1cc2ncc(-c3ccc(CC(=O)Nc4cc(C(C)(C)C)n[nH]4)c(F)c3)nc2cc1OC [Example 153, N-(3-tert-butyl-1H-pyrazol-5-yl)-2-[4-(6,7-dimethoxyquinoxalin-2-yl)-2-fluoro-phenyl]acetamide]
- Kd (KIT kinase): < 5 nM
- Kd (FLT3 kinase): < 5 nM
- IC50 (FLT3-ITD): < 10 nM
